# Experimental data reported in patent US10208066B2, “Imidazopyridazine compounds and their use” (HUTCHISON MEDIPHARMA LIMITED, priority 2014, dated 2019).
# Where two headings read alike, the source gives them in different places.
# Columns and labels:
# Test in all cases: Transcreener KINASE Assay, fluorescent determination of PI3K enzyme activity;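 for PI3K-β IH % (inhibition rate): recombinant PI3K enzyme reaction, 80 min at room temperature, ADP formed detected by far-red competitive fluorescence polarization immunoassay, inhibition relative to ADP in 2% DMSO control wells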;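 for PI3K-γ IH % (inhibition rate): ADP produced by p110γ kinase reaction, 80 min at room temperature, detected by far-red fluorescence polarization immunoassay, inhibition relative to 2% DMSO control wells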;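 for PI3K-δ IH % (inhibition rate): ADP formed by the kinase detected via far-red competitive fluorescence polarization immunoassay after 80 min room-temperature reaction, inhibition relative to 2% DMSO wells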
# Type in all cases: biochemical
# PI3K-β = PI3K-β (Homo sapiens, UniProt P42338); conditions: for inhibition at 1 µM: read-out: PI3K-β IH % (inhibition rate); for inhibition at 1 µM / PI3K-β IH % (inhibition rate): at 1 μM;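 for all read-outs here: recombinant PI3K enzyme reaction, 80 min at room temperature, ADP formed detected by far-red competitive fluorescence polarization immunoassay, inhibition relative to ADP in 2% DMSO control wells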
# PI3K-β, sequence (P42338 whole entry, looked up): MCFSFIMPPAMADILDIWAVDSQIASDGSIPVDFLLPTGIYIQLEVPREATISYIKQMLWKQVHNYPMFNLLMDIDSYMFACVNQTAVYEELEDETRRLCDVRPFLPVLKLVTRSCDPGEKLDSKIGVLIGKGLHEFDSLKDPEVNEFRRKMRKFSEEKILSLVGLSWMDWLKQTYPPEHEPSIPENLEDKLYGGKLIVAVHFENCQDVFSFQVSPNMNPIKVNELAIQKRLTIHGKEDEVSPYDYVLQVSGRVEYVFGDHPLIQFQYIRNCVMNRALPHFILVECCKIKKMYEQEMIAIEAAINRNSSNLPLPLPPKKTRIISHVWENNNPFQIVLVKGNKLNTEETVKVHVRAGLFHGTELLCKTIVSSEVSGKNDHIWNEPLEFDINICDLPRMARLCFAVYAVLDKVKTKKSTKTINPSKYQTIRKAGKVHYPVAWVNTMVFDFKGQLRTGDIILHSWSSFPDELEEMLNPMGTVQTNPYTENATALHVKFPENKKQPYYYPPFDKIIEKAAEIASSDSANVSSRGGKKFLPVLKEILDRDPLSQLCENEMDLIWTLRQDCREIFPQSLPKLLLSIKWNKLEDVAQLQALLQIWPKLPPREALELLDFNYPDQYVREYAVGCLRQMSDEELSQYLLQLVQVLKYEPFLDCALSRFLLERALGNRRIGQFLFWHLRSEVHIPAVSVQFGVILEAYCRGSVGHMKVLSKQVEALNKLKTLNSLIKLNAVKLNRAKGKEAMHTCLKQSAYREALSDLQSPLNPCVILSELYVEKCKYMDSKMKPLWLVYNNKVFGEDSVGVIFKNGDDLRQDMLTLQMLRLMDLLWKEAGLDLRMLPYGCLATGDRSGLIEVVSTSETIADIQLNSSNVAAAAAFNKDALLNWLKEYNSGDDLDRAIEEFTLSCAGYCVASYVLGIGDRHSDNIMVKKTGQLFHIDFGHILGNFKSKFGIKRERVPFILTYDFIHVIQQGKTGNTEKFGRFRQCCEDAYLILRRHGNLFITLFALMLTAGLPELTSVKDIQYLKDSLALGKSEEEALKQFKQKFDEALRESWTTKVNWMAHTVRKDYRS
# Protocol: (§1) It is a universal, homogenous, high throughput screening (HTS) technology using a far-red, competitive fluorescence polarization immunoassay based on the detection of ADP to monitor the activity of enzymes that catalyze group transfer reactions. […] The reaction mixture was added into desired wells of a 96-well plate. The plate was sealed and incubated for 80 min at room temperature. • 2) Next, 25 uL ADP detection mix was added into each well. The plate was sealed again and incubated for 60 min at room temperature. Then fluorescence polarization was measured by Tecan Infinite F500 Reader.
# (§2) Data was analyzed and IC50 values were generated using the add-in software for Microsoft Excel, Xlfit™ (version 5.3).
# (§3) Inhibition rates were calculated as follow: IH %=(ADP amount under 2% DMSO well−ADP amount under test compound well)/ADP amount under 2% DMSO well×100%.
# PI3K-δ (p110δ/p85α) = PI3K-δ (p110δ/p85α) (Homo sapiens (Human), UniProt O00329); conditions: for inhibition at 1 µM: read-out: PI3K-δ IH % (inhibition rate);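 for all read-outs here: ADP formed by the kinase detected via far-red competitive fluorescence polarization immunoassay after 80 min room-temperature reaction, inhibition relative to 2% DMSO wells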
# PI3K-δ (p110δ/p85α), sequence (O00329 whole entry, species assumed): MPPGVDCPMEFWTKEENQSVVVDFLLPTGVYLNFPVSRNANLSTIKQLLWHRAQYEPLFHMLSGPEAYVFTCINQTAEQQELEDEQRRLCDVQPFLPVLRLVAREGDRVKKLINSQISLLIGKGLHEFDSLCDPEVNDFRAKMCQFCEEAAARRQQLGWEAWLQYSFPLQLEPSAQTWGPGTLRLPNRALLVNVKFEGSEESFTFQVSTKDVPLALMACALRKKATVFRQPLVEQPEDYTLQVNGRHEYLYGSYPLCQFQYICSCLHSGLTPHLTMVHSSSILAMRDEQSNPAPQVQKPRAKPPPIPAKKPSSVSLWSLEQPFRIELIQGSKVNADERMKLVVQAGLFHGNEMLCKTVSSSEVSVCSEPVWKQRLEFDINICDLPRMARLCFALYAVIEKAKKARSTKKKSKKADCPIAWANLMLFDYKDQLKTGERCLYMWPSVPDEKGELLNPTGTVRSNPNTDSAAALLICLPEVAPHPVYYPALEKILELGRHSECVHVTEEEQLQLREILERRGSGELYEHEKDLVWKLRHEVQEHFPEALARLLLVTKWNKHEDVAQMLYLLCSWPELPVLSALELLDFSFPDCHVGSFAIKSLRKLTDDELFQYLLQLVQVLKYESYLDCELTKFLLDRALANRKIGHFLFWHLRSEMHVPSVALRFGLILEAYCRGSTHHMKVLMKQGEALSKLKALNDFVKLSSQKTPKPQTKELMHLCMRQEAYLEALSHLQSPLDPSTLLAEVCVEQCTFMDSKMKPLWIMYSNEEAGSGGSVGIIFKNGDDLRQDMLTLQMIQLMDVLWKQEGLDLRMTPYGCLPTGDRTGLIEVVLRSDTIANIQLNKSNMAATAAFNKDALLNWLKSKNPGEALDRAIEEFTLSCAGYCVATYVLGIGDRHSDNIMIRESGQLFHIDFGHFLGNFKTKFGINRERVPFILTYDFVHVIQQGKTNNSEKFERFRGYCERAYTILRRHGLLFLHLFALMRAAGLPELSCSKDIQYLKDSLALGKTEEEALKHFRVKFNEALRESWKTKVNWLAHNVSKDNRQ
# PI3K-δ (p110δ/p85α), sequence (P27986 whole entry partner, species assumed): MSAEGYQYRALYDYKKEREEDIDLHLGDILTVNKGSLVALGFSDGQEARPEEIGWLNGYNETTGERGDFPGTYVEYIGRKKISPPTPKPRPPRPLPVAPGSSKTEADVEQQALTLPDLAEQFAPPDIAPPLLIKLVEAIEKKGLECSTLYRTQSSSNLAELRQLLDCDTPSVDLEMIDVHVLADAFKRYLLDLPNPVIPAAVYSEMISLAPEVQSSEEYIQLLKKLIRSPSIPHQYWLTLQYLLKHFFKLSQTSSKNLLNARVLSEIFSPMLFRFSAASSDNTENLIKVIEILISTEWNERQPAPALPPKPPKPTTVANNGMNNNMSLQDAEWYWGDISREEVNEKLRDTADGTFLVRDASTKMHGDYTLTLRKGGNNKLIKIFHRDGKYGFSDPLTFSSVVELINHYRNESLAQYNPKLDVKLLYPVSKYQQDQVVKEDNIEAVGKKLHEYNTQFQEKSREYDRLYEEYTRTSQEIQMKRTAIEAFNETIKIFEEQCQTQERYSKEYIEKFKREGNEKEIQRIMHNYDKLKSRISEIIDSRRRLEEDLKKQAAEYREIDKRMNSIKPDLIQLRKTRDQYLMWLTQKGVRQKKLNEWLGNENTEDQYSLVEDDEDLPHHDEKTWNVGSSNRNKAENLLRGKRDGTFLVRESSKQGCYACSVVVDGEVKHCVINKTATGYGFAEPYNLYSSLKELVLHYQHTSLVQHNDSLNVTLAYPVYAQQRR
# Protocol: as §1, §2, §3
# PI3K-γ (p110γ) = PI3K-γ (p110γ) (Homo sapiens (Human), UniProt P48736); conditions: for inhibition at 1 µM: read-out: PI3K-γ IH % (inhibition rate);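 for all read-outs here: ADP produced by p110γ kinase reaction, 80 min at room temperature, detected by far-red fluorescence polarization immunoassay, inhibition relative to 2% DMSO control wells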
# PI3K-γ (p110γ), sequence (P48736 whole entry, species assumed): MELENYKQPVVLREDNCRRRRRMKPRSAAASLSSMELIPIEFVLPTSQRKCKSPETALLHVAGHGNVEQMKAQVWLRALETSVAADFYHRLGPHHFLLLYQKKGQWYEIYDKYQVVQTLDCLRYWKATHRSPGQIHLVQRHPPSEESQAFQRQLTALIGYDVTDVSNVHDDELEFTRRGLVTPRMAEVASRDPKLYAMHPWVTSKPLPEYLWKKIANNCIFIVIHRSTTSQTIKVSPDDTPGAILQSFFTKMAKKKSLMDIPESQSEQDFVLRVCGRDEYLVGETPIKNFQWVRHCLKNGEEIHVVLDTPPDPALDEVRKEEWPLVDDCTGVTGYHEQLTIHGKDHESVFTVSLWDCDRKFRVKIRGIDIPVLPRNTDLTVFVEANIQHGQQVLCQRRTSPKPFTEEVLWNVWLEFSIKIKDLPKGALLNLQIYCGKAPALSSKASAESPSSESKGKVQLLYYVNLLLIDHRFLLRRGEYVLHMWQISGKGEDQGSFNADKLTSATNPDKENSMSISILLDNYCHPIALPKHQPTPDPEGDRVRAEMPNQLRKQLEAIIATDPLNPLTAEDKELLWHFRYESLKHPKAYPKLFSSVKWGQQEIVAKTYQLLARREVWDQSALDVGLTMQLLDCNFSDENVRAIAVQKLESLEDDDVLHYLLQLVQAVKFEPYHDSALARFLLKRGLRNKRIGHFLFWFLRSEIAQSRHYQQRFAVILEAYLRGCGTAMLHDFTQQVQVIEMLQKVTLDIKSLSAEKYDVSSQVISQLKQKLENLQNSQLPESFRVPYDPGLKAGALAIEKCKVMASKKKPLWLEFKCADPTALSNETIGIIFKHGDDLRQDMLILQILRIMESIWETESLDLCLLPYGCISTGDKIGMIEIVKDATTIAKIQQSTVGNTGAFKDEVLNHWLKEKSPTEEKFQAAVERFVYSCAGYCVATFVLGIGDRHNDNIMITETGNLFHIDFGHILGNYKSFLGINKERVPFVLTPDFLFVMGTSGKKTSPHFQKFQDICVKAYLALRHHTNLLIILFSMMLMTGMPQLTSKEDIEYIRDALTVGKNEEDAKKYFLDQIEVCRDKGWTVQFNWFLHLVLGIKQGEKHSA
# Protocol: as §1, §2, §3
inhibition at 1 µM (PI3K-β) [%],inhibition at 1 µM (PI3K-γ (p110γ); at 1 μM) [%],SMILES,IC50 (PI3K-δ (p110δ/p85α)) [nM],further results
37.4,–,C[C@H](Nc1ncnc(N)c1C#N)c1cc2ncc(Cl)n2nc1-c1ccc2c(c1)OCCO2 [Compound 70],–,–
60.8,62.8,C[C@H](Nc1ncnc(N)c1C#N)c1cc2ncc(Cl)n2nc1-c1ccncc1 [Compound 73],82,–
–,–,"C[C@H](Nc1ncnc(N)c1C#N)c1cc2ncc(Cl)n2nc1-c1ccccc1O [Compound 69, (S)-4-amino-6-((1-(3-chloro-6-(2-hydroxyphenyl)imidazo[1,2-b]pyridazin-7-yl)ethyl)amino)pyrimidine-5-carbonitrile]",1,–
-2.7,-2.3,"C[C@@H](Nc1ncnc(N)c1C#N)c1cc2ncc(Cl)n2nc1-c1ccccn1 [Compound 7, (R)-4-amino-6-((1-(3-chloro-6-(pyridin-2-yl)imidazo[1,2-b]pyridazin-7-yl)ethyl)amino)pyrimidine-5-carbonitrile]",–,inhibition at 1 µM (PI3K-δ (p110δ/p85α)): 12.5%
18.8,36,CC[C@@H](Nc1ncnc2[nH]cnc12)c1cc2ncc(Cl)n2nc1-c1cccc(F)c1 [Compound 44],283,–
35.2,32.6,C[C@H](Nc1ncnc(N)c1C#N)c1cc2ncc(Cl)n2nc1-c1ccc2ccccc2c1 [Compound 71],129,–
9,1,C[C@H](Nc1ncnc(N)c1C(=O)N(C)C)c1cc2ncc(Cl)n2nc1-c1ccccc1 [Compound 56],–,inhibition at 1 µM (PI3K-δ (p110δ/p85α)): 21%
-0.4,27.5,"C[C@H](Nc1ncnc(N)c1-c1cccc(F)c1)c1cc2ncc(Cl)n2nc1-c1ccccc1 [Compound 37, (S)—N^4-(1-(3-chloro-6-phenylimidazo[1,2-b]pyridazin-7-yl)ethyl)-5-(3-fluorophenyl)pyrimidine-4,6-diamine]",288,–
-10.7,4.1,"CC[C@@H](Nc1ncnc(N)c1C#N)c1cc2ncc(Cl)n2nc1-c1ccccc1 [Compound 5, (R)-4-amino-6-((1-(3-chloro-6-phenylimidazo[1,2-b]pyridazin-7-yl)propyl)amino)pyrimidine-5-carbonitrile]",–,inhibition at 1 µM (PI3K-δ (p110δ/p85α)): 47.3%
–,–,C[C@H](Nc1ncnc(N)c1C#N)c1cc2ncc(Cl)n2nc1-c1ccccc1F [Compound 12],2,IC50 (PI3K-γ (p110γ)): 550 nM; IC50 (PI3K-β): 80 nM
–,–,"Cc1nnc(-c2c(N)ncnc2N[C@@H](C)c2cc3ncc(Cl)n3nc2-c2ccccc2)o1 [Compound 81, (S)—N^4-(1-(3-chloro-6-phenylimidazo[1,2-b]pyridazin-7-yl)ethyl)-5-(5-methyl-1,3,4-oxadiazol-2-yl)pyrimidine-4,6-diamine]",2,IC50 (PI3K-γ (p110γ)): 98 nM
–,8,"CCC(Nc1ncnc2[nH]cnc12)c1cc2ncc(Cl)n2nc1-c1ccccc1F (single isomer, unassigned) [Compound 26]",–,PI3K-β IH % (inhibition rate) (PI3K-β): −7.5%
6.3,30.3,C[C@H](Nc1ncnc(N)c1-c1cnn(C)c1)c1cc2ncc(Cl)n2nc1-c1ccccc1 [Compound 57],62,–
–,–,C[C@H](Nc1ncnc(N)c1C#N)c1cc2ncc(Cl)n2nc1-c1ccc(O)cc1 [Compound 49],1,IC50 (PI3K-γ (p110γ)): 146 nM; IC50 (PI3K-β): 1 nM
-2.2,54.3,C[C@H](Nc1ncnc(N)c1-c1ccc(O)c(F)c1)c1cc2ncc(Cl)n2nc1-c1ccccc1 [Compound 38],66,–
54.9,-14.3,C[C@H](Nc1ncnc(N)c1C#N)c1cc2ncc(Cl)n2nc1-c1ccc2ccn(C)c2c1 [Compound 76],–,inhibition at 1 µM (PI3K-δ (p110δ/p85α)): 48.9%
–,–,"C[C@H](Nc1ncnc(N)c1C#N)c1cc2ncc(Cl)n2nc1-c1cccc(C(C)(C)O)c1 (single isomer, unassigned) [Compound 79, (chiral)-4-amino-6-((1-(3-chloro-6-(3-(2-hydroxypropan-2-yl)phenyl)imidazo[1,2-b]pyridazin-7-yl)ethyl)amino)pyrimidine-5-carbonitrile]",–,PI3K-γ IH % (inhibition rate) (PI3K-γ (p110γ); at 1 μM): 56.2%; PI3K-β IH % (inhibition rate) (PI3K-β): 43.8%
-14.1,5.5,COc1cc(-c2c(N)ncnc2N[C@@H](C)c2cc3ncc(Cl)n3nc2-c2ccccc2)ccn1 [Compound 50],–,inhibition at 1 µM (PI3K-δ (p110δ/p85α)): 68.9%
–,–,C[C@H](Nc1ncnc(N)c1C#N)c1cc2ncc(Cl)n2nc1-c1ccsc1 [Compound 60],1,IC50 (PI3K-γ (p110γ)): 48 nM; IC50 (PI3K-β): 34 nM
-4.4,28.1,COc1ccc(-c2c(N)ncnc2N[C@@H](C)c2cc3ncc(Cl)n3nc2-c2ccccc2)cn1 [Compound 39],73,–
–,6.9,"C[C@@H](Nc1ncnc(N)c1C#N)c1cc2ncc(Cl)n2nc1-c1ccccc1 [Compound 3, (R)-4-amino-6-((1-(3-chloro-6-phenylimidazo[1,2-b]pyridazin-7-yl)ethyl)amino)pyrimidine-5-carbonitrile]",–,–
-7.1,31.7,C[C@@H](Nc1ncnc(N)c1C#N)c1cc2ncc(Cl)n2nc1-c1ccc2scnc2c1 [Compound 75],–,inhibition at 1 µM (PI3K-δ (p110δ/p85α)): 1%

SMILES,inhibition at 1 µM (PI3K-β) [%],inhibition at 1 µM (PI3K-γ (p110γ); at 1 μM) [%],IC50 (PI3K-δ (p110δ/p85α)) [nM],further results
"CNc1ncnc(N[C@@H](C)c2cc3ncc(Cl)n3nc2-c2ccccc2)c1C#N [Compound 33, (S)-4-((1-(3-chloro-6-phenylimidazo[1,2-b]pyridazin-7-yl)ethyl)amino)-6-(methylamino)pyrimidine-5-carbonitrile]",2.2,-6.9,288,–
"Cc1noc(-c2c(N)ncnc2N[C@@H](C)c2cc3ncc(Cl)n3nc2-c2ccccc2)n1 [Compound 82, (S)—N^4-(1-(3-chloro-6-phenylimidazo[1,2-b]pyridazin-7-yl)ethyl)-5-(3-methyl-1,2,4-oxadiazol-5-yl)pyrimidine-4,6-diamine]",55.2,–,13,IC50 (PI3K-γ (p110γ)): 203 nM
"CC(Nc1ncnc2[nH]cnc12)c1cc2ncc(Cl)n2nc1-c1ccccc1 (single isomer, unassigned) [Compound 11]",55.7,–,3,IC50 (PI3K-γ (p110γ)): 94 nM
"C[C@H](Nc1nc[n+]([O-])c(N)c1C#N)c1cc2ncc(Cl)n2nc1-c1ccccc1 [Compound 51, (S)-6-amino-4-((1-(3-chloro-6-phenylimidazo[1,2-b]pyridazin-7-yl)ethyl)amino)-5-cyanopyrimidine 1-oxide]",-15.5,–,–,inhibition at 1 µM (PI3K-γ (p110γ)): 36.7%
CCC(Nc1ncnc2[nH]cnc12)c1cc2ncc(Cl)n2nc1-c1ccccc1 (stereo not drawn) [Compound 14],–,22.5,–,inhibition at 1 µM (PI3K-δ (p110δ/p85α)): 51%; PI3K-β IH % (inhibition rate) (PI3K-β): 3.2%
C[C@H](Nc1ncnc(N)c1C#N)c1cc2ncc(F)n2nc1-c1ccccc1 [Compound 78],50.1,–,–,–
C[C@H](Nc1ncnc(N)c1C#N)c1cc2ncc(Cl)n2nc1-c1ccc(Cl)c(F)c1 [Compound 64],44.1,–,48,IC50 (PI3K-γ (p110γ)): > 333 nM
C[C@H](Nc1ncnc(N)c1C#N)c1cc2ncc(Cl)n2nc1-c1ccc(F)c(F)c1 [Compound 63],48.1,–,6,IC50 (PI3K-γ (p110γ)): 105 nM
